# US11524938B2, “Aromatic sulfonamide derivatives” (Bayer Pharma Aktiengesellschaft, priority 2016, dated 2022)
# Tests used:
# human P2X4 = biological target: T1, human P2X4 (Homo sapiens, UniProt Q99571); assay: Human P2X4 HEK Cell FLIPR Assay; format: cell-based; details: HEK293, HEK293 cells, agonist Bz-ATP at EC80; percentage of maximal inhibition; read-out: Human P2X4 HEK Cells (FLIPR Assay) avg Efficacy [%]
# T1 sequence (Q99571 1-388): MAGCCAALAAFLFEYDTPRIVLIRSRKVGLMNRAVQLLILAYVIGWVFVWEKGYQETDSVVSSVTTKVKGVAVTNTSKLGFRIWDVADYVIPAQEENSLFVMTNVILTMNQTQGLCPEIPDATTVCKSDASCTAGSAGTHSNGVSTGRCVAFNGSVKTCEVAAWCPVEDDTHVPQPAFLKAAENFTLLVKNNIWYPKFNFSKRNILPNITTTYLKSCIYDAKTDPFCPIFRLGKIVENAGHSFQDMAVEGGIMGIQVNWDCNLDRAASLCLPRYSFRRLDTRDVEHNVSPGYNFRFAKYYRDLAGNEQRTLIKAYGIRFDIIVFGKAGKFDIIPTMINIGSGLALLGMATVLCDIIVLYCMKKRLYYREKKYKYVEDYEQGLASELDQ
# Outline: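 Calcium flux read by FLIPR for 120 sec after Bz-ATP challenge at EC80 (established each assay day), following 30 min room-temperature compound preincubation in dye-loaded stable human P2X4 HEK293 cells. Peak RFU over basal normalized to agonist control; IC50, maximal inhibition and Hill coefficient from triplicate means.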
# C57BL/6 mice = assay: CFA Inflammation Model in Mice with Pain Behaviour Read Out; format: in vivo, mouse; details: oral 0.3, 1, 3 mg/kg, day 2 post-CFA, 1 h after treatment, vs vehicle
# Experimental: Wild type female C57BL/6 mice (Taconic) received intraplantar injection of complete Freund's adjuvant (CFA) (30 μL, 1 mg/mL, Sigma) into the left hind paw under isoflurane anesthesia. Animals were administered orally with example 326 (0.3, 1, and 3 mg/kg, n=10/group) on day 2 post-CFA injection. Spontaneous pain-related behavior in freely moving animals was assessed using the automated dynamic weight bearing device (DWB, Bioseb, France) one hour after compound treatment according to published and validated protocols (Robinson et al., 2012; Tetreault et al., 2011; Gruen et al. 2014). For behavioral testing, the animal was placed inside a Plexiglas chamber in which the exerted pressure on the floor was measured. The animals were allowed to move freely within the apparatus for 5 min and subsequently pain behavior is recorded for a test period of another 5 min. The relative weight distribution is calculated by determining the ratio of the weight put on naïve (contralateral) vs. that put on the intraplantar CFA treated (ipsilateral) paws.
# FIG. 3 as nonbinding explanatory example of compounds according to the invention represents the ratio of weight distribution in percent (y-axis) of mice orally treated with example 326 or vehicle 1 hour prior to weight distribution measurement. Each symbol represents the relative weight distribution for one mouse. […]
SMILES,Emax (human P2X4) [%],"pain behavior (relative weight distribution, dynamic weight bearing) (C57BL/6 mice)"
"N#Cc1cnn(-c2ccc(NC(=O)Cc3ccccc3Cl)cc2S(N)(=O)=O)c1 [Example 39, 2-(2-Chlorophenyl)-N-[4-(4-cyano-1H-pyrazol-1-yl)-3-sulfamoylphenyl]acetamide]",96,–
"NS(=O)(=O)c1cc(NC(=O)Cc2ccccc2Cl)ccc1-c1cnn(C(F)F)c1 [Example 326, 2-(2-Chlorophenyl)-N-{4-[1-(difluoromethyl)-1H-pyrazol-4-yl]-3-sulfamoylphenyl}acetamide]",95,significantly reduced pain behavior
